One assay deals with Cathepsin D (Cat D) (Homo sapiens (Human), UniProt P07339). The assay is described as follows: In vitro enzymatic Cathepsin D (Cat D) FRET assay. It is filed as biochemical. Conditions: read-out: CatD IC50.
A further assay addresses BACE (Homo sapiens (Human), UniProt P56817). The assay can be described thus: In vitro BACE cell-based assay (Aβ40 in conditioned medium, sandwich ELISA).
Assay [1] deals with Beta Secretase enzyme (BACE) (Homo sapiens (Human), UniProt P56817). The assay is described as follows: In vitro enzymatic BACE FRET assay. It is filed as biochemical. Particulars: read-out: BACE1 Enzyme assay IC50.
Beta Secretase enzyme (BACE), sequence (P56817 46-501): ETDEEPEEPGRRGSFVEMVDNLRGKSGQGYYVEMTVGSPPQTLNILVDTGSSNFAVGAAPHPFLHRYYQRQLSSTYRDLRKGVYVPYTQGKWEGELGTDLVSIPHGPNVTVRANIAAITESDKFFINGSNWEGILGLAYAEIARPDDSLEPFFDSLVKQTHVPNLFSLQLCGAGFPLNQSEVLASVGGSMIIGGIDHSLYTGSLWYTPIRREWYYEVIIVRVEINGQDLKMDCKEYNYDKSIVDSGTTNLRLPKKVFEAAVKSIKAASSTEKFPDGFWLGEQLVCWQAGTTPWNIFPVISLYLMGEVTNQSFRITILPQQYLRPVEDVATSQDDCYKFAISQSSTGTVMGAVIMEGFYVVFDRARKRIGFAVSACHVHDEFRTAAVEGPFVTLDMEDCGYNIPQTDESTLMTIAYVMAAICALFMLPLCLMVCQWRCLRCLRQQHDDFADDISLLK

This passage reports IC50 results from patent US9085576B2 (AMGEN INC., priority 2013, dated 2015).

Where a name gives a salt, the structure may show the parent alone.

BACE, sequence (P56817 46-501, species assumed): as the sequence (P56817 46-501) above
Cathepsin D (Cat D), sequence (P07339 65-412, species assumed): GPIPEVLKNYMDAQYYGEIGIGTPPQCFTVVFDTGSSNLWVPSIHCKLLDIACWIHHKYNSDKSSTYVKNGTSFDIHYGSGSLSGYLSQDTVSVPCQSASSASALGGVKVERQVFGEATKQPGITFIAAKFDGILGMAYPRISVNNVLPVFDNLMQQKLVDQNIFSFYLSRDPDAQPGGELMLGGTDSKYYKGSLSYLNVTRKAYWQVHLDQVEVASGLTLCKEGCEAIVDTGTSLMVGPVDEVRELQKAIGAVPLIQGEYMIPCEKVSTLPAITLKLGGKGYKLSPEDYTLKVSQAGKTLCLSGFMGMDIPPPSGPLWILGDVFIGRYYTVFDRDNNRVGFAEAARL

Turning to `C[C@H](F)c1nc(C(=O)Nc2ccc(F)c([C@@]3(C(F)F)N=C(N)O[C@@H]4C[C@@H]43)c2)co1` (mixture of isomers) [Example 175, N-(3-((1R,5S,6R)-3-amino-5-(difluoromethyl)-2-oxa-4-azabicyclo[4.1.0]hept-3-en-5-yl)-4-fluorophenyl)-2-(1-fluoroethyl)oxazole-4-carboxamide 2,2,2-trifluoroacetate], the values for the 50% inhibitory concentration (IC50) (at Cathepsin D (Cat D); against BACE; in assay [1]) were 1340 µM, 2.48 µM and 2.88 µM, respectively.

Turning to `NC1=N[C@@](c2cc(NC(=O)[C@H]3CCCO3)ccc2F)(C(F)F)[C@H]2C[C@H]2O1` (mixture of isomers) [Example 244, (S,R)-N-(3-((1R,5S,6R)-3-amino-5-(difluoromethyl)-2-oxa-4-azabicyclo[4.1.0]hept-3-en-5-yl)-4-fluorophenyl) tetrahydrofuran-2-carboxamide], the IC50 at Cathepsin D (Cat D) turned out to be 319 µM; at BACE, 1.98 µM; in assay [1], 5.37 µM.

With `C[C@H](C(=O)Nc1ccc(F)c([C@@]2(C(F)F)N=C(N)O[C@@H]3C[C@@H]32)c1)c1ccc(Cl)cc1` (mixture of isomers) [Example 252, N-(3-((1R,5S,6R)-3-amino-5-(difluoromethyl)-2-oxa-4-azabicyclo[4.1.0]hept-3-en-5-yl)-4-fluorophenyl)-2-(4-chlorophenyl) propanamide], the values for the half-inhibitory concentration (IC50) (at Cathepsin D (Cat D); on BACE; in assay [1]) were 270 µM, greater than 15.6 µM and greater than 40 µM, respectively.

For `NC1=N[C@@](c2cc(NC(=O)[C@@H]3CCOC3)ccc2F)(C(F)F)[C@H]2C[C@H]2O1` (mixture of isomers) [Example 253, (R,S)-N-(3-((1R,5S,6R)-3-amino-5-(difluoromethyl)-2-oxa-4-azabicyclo[4.1.0]hept-3-en-5-yl)-4-fluorophenyl) tetrahydrofuran-3-carboxamide], the figures for the IC50 (at Cathepsin D (Cat D); at BACE; in assay [1]) were 188 µM, greater than 15.6 µM and 34.3 µM, respectively.

As for `CO[C@H](C)C(=O)Nc1ccc(F)c([C@@]2(C(F)F)N=C(N)O[C@@H]3C[C@@H]32)c1` (mixture of isomers) [Example 257, (R,S)-N-(3-((1R,5S,6R)-3-amino-5-(difluoromethyl)-2-oxa-4-azabicyclo[4.1.0]hept-3-en-5-yl)-4-fluorophenyl)-2-methoxypropanamide], the IC50 on Cathepsin D (Cat D) amounted to 377 µM; at BACE, 2.54 µM; in assay [1], 1.84 µM.

With `C[C@H](C#N)Oc1ccc(C(=O)Nc2ccc(F)c([C@@]3(C(F)F)N=C(N)O[C@@H]4C[C@@H]43)c2)nc1` (mixture of isomers) [Example 259], the IC50 was found to be 668 µM at Cathepsin D (Cat D), 0.473 µM against BACE and 0.659 µM in assay [1].

Take `C[C@@H](Nc1ccc(F)c([C@@]2(C(F)F)N=C(N)O[C@@H]3C[C@@H]32)c1)c1ccc(Cl)cn1` (mixture of isomers) [Example 378, (1R,5S,6R)-5-(5-(((R)-1-(5-chloropyridin-2-yl)ethyl)amino)-2-fluorophenyl)-5-(difluoromethyl)-2-oxa-4-azabicyclo[4.1.0]hept-3-en-3-amine and (1R,5S,6R)-5-(5-(((S)-1-(5-chloropyridin-2-yl)ethyl)amino)-2-fluorophenyl)-5-(difluoromethyl)-2-oxa-4-azabicyclo[4.1.0]hept-3-en-3-amine]: the concentration for half-maximal inhibition (IC50) is 77.4 µM on Cathepsin D (Cat D), 2.13 µM against BACE and 13.8 µM in assay [1].

Consider `NC1=N[C@@](c2cc(NC(=O)c3cnc(OCC4CCOC4)cn3)ccc2F)(C(F)F)[C@H]2C[C@H]2O1` (mixture of isomers) [Example 413], for which the IC50 is greater than 400 µM on Cathepsin D (Cat D), 0.865 µM on BACE and 0.145 µM in assay [1].

Consider `NC1=N[C@](c2cc(NC(=O)c3ccc(Cl)cn3)ccc2F)(C(F)F)[C@@H]2C[C@@H]2O1` (racemic) [Example 55, N-(3-([1(R,S),5(S,R),6(R,S)]-3-amino-5-(difluoromethyl)-2-oxa-4-azabicyclo[4.1.0]hept-3-en-5-yl)-4-fluorophenyl)-5-chloropicolinamide], for which the results for the IC50 (on Cathepsin D (Cat D); at BACE; in assay [1]) were 860 µM, 0.0431 µM and 0.0362 µM, respectively.

For the molecule `COc1cnc(C(=O)Nc2ccc(F)c([C@]3(C(F)F)N=C(N)O[C@H]4C[C@H]43)c2)c(C)n1` (racemic) [Example 58, N-(3-([1(R,S),5(S,R),6(R,S)]-3-amino-5-(difluoromethyl)-2-oxa-4-azabicyclo[4.1.0]hept-3-en-5-yl)-4-fluorophenyl)-5-methoxy-3-methylpyrazine-2-carboxamide], the values for the concentration for half-maximal inhibition (IC50) (on Cathepsin D (Cat D); at BACE; in assay [1]) were 822 µM, 0.179 µM and 0.158 µM, respectively.

Turning to `Cc1c(C(=O)Nc2ccc(F)c([C@]3(C(F)F)N=C(N)O[C@H]4C[C@H]43)c2)nc2ccc(Cl)cn12` (racemic) [Example 61, N-(3-([1(R,S),5(S,R),6(R,S)]-3-amino-5-(difluoromethyl)-2-oxa-4-azabicyclo[4.1.0]hept-3-en-5-yl)-4-fluorophenyl)-6-chloro-3-methylimidazo[1,2-a]pyridine-2-carboxamide], the half-maximal inhibitory concentration (IC50) on Cathepsin D (Cat D) is 1780 µM; at BACE it was 0.0701 µM; in assay [1] it was 0.167 µM.

As for `N#Cc1cnc2c(c1)CC[C@@H]2Nc1ccc(F)c([C@@]2(C(F)F)N=C(N)O[C@@H]3C[C@@H]32)c1` (single isomer, unassigned) [Example 402], the IC50 stood at 0.318 µM at BACE and 0.976 µM in assay [1].

As to `NC1=N[C@](CF)(c2cc(NC(=O)c3ccc(Cl)cn3)cc(F)c2F)[C@H]2C[C@H]2O1` [Example 142, N-(3-(((1R,S),(5S,R),(6R,S))-3-amino-5-(fluoromethyl)-2-oxa-4-azabicyclo[4.1.0]hept-3-en-5-yl)-4,5-difluorophenyl)-5-chloropicolinamide], the IC50 against BACE worked out at 0.0263 µM.

Consider `Cc1cc(C(F)F)cnc1C(=O)Nc1ccc(F)c([C@@]2(CF)N=C(N)O[C@@H]3C[C@@H]32)c1` [Example 201, N-(3-((1R,5S,6R)-3-amino-5-(fluoromethyl)-2-oxa-4-azabicyclo[4.1.0]hept-3-en-5-yl)-4-fluorophenyl)-5-(difluoromethyl)-3-methylpicolinamide], for which the figures for the IC50 (on BACE; in assay [1]) were 0.0179 µM and 0.0638 µM, respectively.

On to `Cc1cc(OC(F)F)cnc1C(=O)Nc1ccc(Cl)c(C2(C(F)F)N=C(N)O[C@@H]3C[C@@H]32)c1` (stereo partly shown) [Example 209], for which the IC50 against BACE is 0.0765 µM; in assay [1], 0.0908 µM.

Turning to `COc1cc(Cl)cnc1C(=O)Nc1ccc(Cl)c([C@@]2(CF)N=C(N)O[C@@H]3C[C@@H]32)c1` [Example 297, N-(3-((1R,5S,6R)-3-amino-5-(fluoromethyl)-2-oxa-4-azabicyclo[4.1.0]hept-3-en-5-yl)-4-chlorophenyl)-5-chloro-3-methoxypicolinamide], the 50% inhibitory concentration (IC50) came out at 0.0074 µM against BACE and 0.183 µM in assay [1].

Consider `COc1cnc(C(=O)Nc2ccc(F)c([C@@]3(C)N=C(N)O[C@@H]4C[C@@H]43)n2)cn1` [Example 322, N-(6-((1R,5S,6R)-3-amino-5-methyl-2-oxa-4-azabicyclo[4.1.0]hept-3-en-5-yl)-5-fluoropyridin-2-yl)-5-methoxypyrazine-2-carboxamide], for which the IC50 came out at 0.184 µM against BACE and 1.99 µM in assay [1].

As for `N#Cc1cnc2c(c1)CC[C@H]2Nc1ccc(F)c([C@@]2(C(F)F)N=C(N)O[C@@H]3C[C@@H]32)c1` [Example 401, (R)-7-((3-((1R,5S,6R)-3-amino-5-(difluoromethyl)-2-oxa-4-azabicyclo[4.1.0]hept-3-en-5-yl)-4-fluorophenyl)amino)-6,7-dihydro-5H-cyclopenta[b]pyridine-3-carbonitrile], the IC50 against BACE came out at 0.0575 µM; in assay [1], 0.108 µM.

For the molecule `CC#Cc1cncc(-c2ccc(F)c([C@@]3(CF)N=C(N)O[C@@H]4C[C@@H]43)c2)c1` [Example 431, (1(S,R),5(R,S),6(S,R))-5-(2-fluoro-5-(5-(prop-1-yn-1-yl)pyridin-3-yl)phenyl)-5-(fluoromethyl)-2-oxa-4-azabicyclo[4.1.0]hept-3-en-3-amine], the IC50 on Cathepsin D (Cat D) amounted to 91.6 µM; in assay [1], 4.69 µM.

As for `CC#Cc1cncc(-c2cc([C@]3(CF)N=C(N)O[C@H]4C[C@H]43)c(F)cc2CO)c1` [Example 432, (4-(((1S,R),(5R,S),(6S,R))-3-amino-5-(fluoromethyl)-2-oxa-4-azabicyclo[4.1.0]hept-3-en-5-yl)-5-fluoro-2-(5-(prop-1-yn-1-yl)pyridin-3-yl)phenyl)methanol], the values for the 50% inhibitory concentration (IC50) (at Cathepsin D (Cat D); in assay [1]) were 178 µM and 33.1 µM, respectively.

With `NC1=N[C@@](c2cc(-n3cc(C#CC4CC4)cn3)ccc2F)(C(F)F)[C@H]2C[C@H]2O1` [Example 435], the results for the IC50 (on Cathepsin D (Cat D); in assay [1]) were 316 µM and 8.62 µM, respectively.

For the molecule `CNc1cnc(C(=O)Nc2ccc(F)c([C@@]3(C(F)F)N=C(N)O[C@@H]4C[C@@H]43)c2)nc1` [Example 439, N-(3-((1R,5S,6R)-3-amino-5-(difluoromethyl)-2-oxa-4-azabicyclo[4.1.0]hept-3-en-5-yl)-4-fluorophenyl)-5-(methylamino)pyrimidine-2-carboxamide dihydrochloride], the values for the IC50 (at Cathepsin D (Cat D); in assay [1]) were 490 µM and 0.473 µM, respectively.

“(R)-8-((3-((1R,5S,6R)-3-amino-5-(difluoromethyl)-2-oxa-4-azabicyclo[4.1.0]hept-3-en-5-yl)-4-fluorophenyl)amino)-5,6,7,8-tetrahydroquinoline-3-carbonitrile and (S)-8-((3-((1R,5S,6R)-3-amino-5-(difluoromethyl)-2-oxa-4-azabicyclo[4.1.0]hept-3-en-5-yl)-4-fluorophenyl)amino)-5,6,7,8-tetrahydroquinoline-3-carbonitrile [Example 403]”: the half-inhibitory concentration (IC50) on Cathepsin D (Cat D) was 469 µM; in assay [1] it was 2.85 µM.

For “N-(3-((1R,5S,6R)-3- amino-5- (difluoromethyl)-2-oxa- 4-azabicyclo[4.1.0]hept- 3-en-5-yl)-4-fluoro-5- methylphenyl)-4-chloro- 2-(fluoromethyl) benzamide [Example 444]”, the half-inhibitory concentration (IC50) worked out at 171 µM at Cathepsin D (Cat D) and 0.0105 µM in assay [1].
